Experimental data from patent publication US5747447A, “Stable polypeptide composition” (COR Therapeutics, priority 1995, dated 1998).
Like-named read-outs stand apart in the source and are kept apart here. Where a SMILES comes first, the peptide text is derived from it. Bridges are numbered along the chain shown (N, C = ends). Where no end group is shown, it is not given here. [ ]: non-standard residue; d: D form. Phe(4-Cl) = N[C@@H](Cc1ccc(Cl)cc1)C(=O)O; 2Nal = N[C@@H](Cc1ccc2ccccc2c1)C(=O)O; hArg = N=C(N)NCCCC[C@H](N)C(=O)O; NMeL = CN[C@@H](CC(C)C)C(=O)O; Pen = CC(C)(S)[C@H](N)C(=O)O; NMeS = CN[C@@H](CO)C(=O)O; NMeA = CN[C@@H](C)C(=O)O; Aib = CC(C)(N)C(=O)O; Mpa = O=C(O)CCS; Sar = CNCC(=O)O

What was measured:
GP IIb-IIIa = molecular target: T1, GP IIb-IIIa (Homo sapiens, UniProt P05106+P08514); type: binding; conditions: plate assays
T1 construct: GP IIb-IIIa, prepared in purified form; from tissue; own knowledge of the cited Fitzgerald et al. 1985 method
Protocol: In the assay, GP IIb-IIIa, prepared in purified form, for example as described by Fitzgerald, L. A., et al., Anal Biochem (1985) 151:169-177, incorporated herein by reference, is coated onto a solid support such as beads, test tubes, or microtiter plates. The coated support is then contacted with fibrinogen and with the test material and incubated for a sufficient time to permit maximal binding of fibrinogen to the immobilized GP IIb-IIIa. Fibrinogen is typically provided at a concentration of about 5-50 nM and the test material can, if desired, be added at a series of dilutions. Typical incubations are 2-4 hr at 35° C., the time and temperature being interdependent.
After incubation, the solution containing the fibrinogen and test material is removed and the level of binding of fibrinogen measured by quantitating bound fibrinogen to GP IIb-IIIa. Any suitable means of detection can be used, but it is convenient to employ labeled fibrinogen, for example using radioactive, fluorescent or biotinylated labels. Such methods are well known and need not be elaborated here.
Assessment of the results is aided by employing a control sample, usually identical to the test sample except that the test substance is absent. In this case, percent inhibition may be calculated using the basis, so that [formula] Other measures of inhibition effectiveness, such as IC50, can also be used.

[1] = 25 mM citrate buffer pH 5.25, about 1 mg/mL
Excerpt: Test sample vials from each temperature condition were removed periodically and analyzed for stability by HPLC and visual inspection as described in Example 1.

[2] = molecular target: ADP-induced human platelet aggregation (Homo sapiens, UniProt P05106+P08514); assay: standard aggregation inhibition assay (ADP-induced human platelet aggregation); type: cell-based; conditions: for IC20: PAI activity, Example 15, read-out: Appr.IC20; for IC50: ADP-induced human platelet aggregation, read-out: Appr, IC50
Excerpt: 2. Standard assays directly applied to platelet aggregation, such as those described by Gann, Z.-R., et al., J Biol Chem (1988) 263:19827-19832; Huang, T. F., et al., J Biol Chem (1987) 262:16157-16163; Biochemistry (1989) 28:661-666, cited above and incorporated herein by reference;

Row | Compound | IC20 [2] [nM] | IC50 [2] [nM] | also measured
1 | C[C@H](NC(=O)[C@@H]1CSSC[C@H](NC(=O)CN)C(=O)N[C@@H](CCCCN)C(=O)NCC(=O)N[C@@H](CC(=O)O)C(=O)N[C@@H](Cc2c[nH]c3ccccc23)C(=O)N1)C(N)=O [Analog #7, G-C-K-G-D-W-C-A-NH2] (H-GCKGDWCA-NH2; disulfide 2-7 (inferred); N-terminus assumed) | – | – | differential fibrinogen/GP IIb-IIIa versus vitronectin/vitronectin receptor (in words) (GP IIb-IIIa): quite specific
2 | C[C@@H]1NC(=O)CCSSC[C@@H](C(N)=O)NC(=O)[C@@H]2CCCN2C(=O)[C@H](Cc2c[nH]c3ccccc23)NC(=O)[C@H](CC(=O)O)NC(=O)CNC(=O)[C@H](CCCCNC(=N)N)NC1=O [PAI 82, Mpr-A-Har-G-D-W-P-C-NH2] ([Mpa]A[hArg]GDWPC-NH2; disulfide 1-8) | 120 | – | stability by HPLC as in Example 1 ([1]; 5° C., Time (Days) 0): 99.6; stability by HPLC as in Example 1 ([1]; 5° C., Time (Days) 29): 98.1; stability by HPLC as in Example 1 ([1]; 5° C., Time (Days) 60): 98.3; stability by HPLC as in Example 1 ([1]; 5° C., Time (Days) 90): 97.3; stability by HPLC as in Example 1 ([1]; 30° C., Time (Days) 29): 97.3; stability by HPLC as in Example 1 ([1]; 30° C., Time (Days) 60): 97.3; stability by HPLC as in Example 1 ([1]; 30° C., Time (Days) 90): 96.5; stability by HPLC as in Example 1 ([1]; 45° C., Time (Days) 29): 95.4; stability by HPLC as in Example 1 ([1]; 45° C., Time (Days) 60): 92.6; stability by HPLC as in Example 1 ([1]; 45° C., Time (Days) 90): 90.6
3 | CC(C)C[C@H]1C(=O)N[C@@H](CCCCNC(=N)N)C(=O)NCC(=O)N[C@@H](CC(=O)O)C(=O)N[C@@H](Cc2c[nH]c3ccccc23)C(=O)N2CCC[C@H]2C(=O)N[C@H](C(N)=O)CSSCCC(=O)N1C [PAI 88, Mpr-(N-Me-Leu)-Har-G-D-W-P-C-NH2] ([Mpa][NMeL][hArg]GDWPC-NH2; disulfide 1-8) | 840 | – | –
4 | C[C@H]1C(=O)N[C@@H](CCCCNC(=N)N)C(=O)NCC(=O)N[C@@H](CC(=O)O)C(=O)N[C@@H](Cc2c[nH]c3ccccc23)C(=O)N2CCC[C@H]2C(=O)N[C@H](C(N)=O)CSSCCC(=O)N1C [PAI 89, Mpr-(N-Me-Ala)-Har-G-D-W-P-C-NH2] ([Mpa][NMeA][hArg]GDWPC-NH2; disulfide 1-8) | 620 | – | –
5 | CN1CC(=O)N[C@@H](CCCCNC(=N)N)C(=O)NCC(=O)N[C@@H](CC(=O)O)C(=O)N[C@@H](Cc2c[nH]c3ccccc23)C(=O)N2CCC[C@H]2C(=O)N[C@H](C(N)=O)CSSCCC1=O [PAI 90, Mpr-Sar-Har-G-D-W-P-C-NH2] ([Mpa][Sar][hArg]GDWPC-NH2; disulfide 1-8) | 270 | – | –
6 | CC(C)[C@@H]1NC(=O)CCSSC[C@@H](C(N)=O)NC(=O)[C@@H]2CCCN2C(=O)[C@H](Cc2c[nH]c3ccccc23)NC(=O)[C@H](CC(=O)O)NC(=O)CNC(=O)[C@H](CCCCNC(=N)N)NC1=O [PAI 91, Mpr-V-Har-G-D-W-P-C-NH2] ([Mpa]V[hArg]GDWPC-NH2; disulfide 1-8) | 350 | – | –
7 | N=C(N)NCCCC[C@@H]1NC(=O)[C@H](CO)NC(=O)CCSSC[C@@H](C(N)=O)NC(=O)[C@@H]2CCCN2C(=O)[C@H](Cc2c[nH]c3ccccc23)NC(=O)[C@H](CC(=O)O)NC(=O)CNC1=O [PAI 92, Mpr-S-Har-G-D-W-P-C-NH2] ([Mpa]S[hArg]GDWPC-NH2; disulfide 1-8) | 240 | – | –
8 | C[C@@H]1NC(=O)[C@@H]2CCCN2C(=O)[C@H](Cc2c[nH]c3ccccc23)NC(=O)[C@H](CC(=O)O)NC(=O)CNC(=O)[C@H](CCCCNC(=N)N)NC(=O)CCSSC[C@@H](C(N)=O)NC1=O [PAI 93, Mpr-Har-G-D-W-P-A-C-NH2] ([Mpa][hArg]GDWPAC-NH2; disulfide 1-8) | 3330 | – | –
9 | C[C@H]1C(=O)N[C@H](C(N)=O)CSSCCC(=O)N[C@@H](CCCCNC(=N)N)C(=O)NCC(=O)N[C@@H](CC(=O)O)C(=O)N[C@@H](Cc2c[nH]c3ccccc23)C(=O)N2CCC[C@H]2C(=O)N1C [PAI 94, Mpr-Har-G-D-W-P-(N-Me-Ala)-C-NH2] ([Mpa][hArg]GDWP[NMeA]C-NH2; disulfide 1-8) | 1460 | – | –
10 | N=C(N)NCCCC[C@@H]1NC(=O)CCSSC[C@@H](C(N)=O)NC(=O)CNC(=O)[C@@H]2CCCN2C(=O)[C@H](Cc2c[nH]c3ccccc23)NC(=O)[C@H](CC(=O)O)NC(=O)CNC1=O [PAI 95, Mpr-Har-G-D-W-P-G-C-NH2] ([Mpa][hArg]GDWPGC-NH2; disulfide 1-8) | 8660 | – | –
11 | C[C@H]1NC(=O)[C@@H]2CCCN2C(=O)[C@H](Cc2c[nH]c3ccccc23)NC(=O)[C@H](CC(=O)O)NC(=O)CNC(=O)[C@H](CCCCNC(=N)N)NC(=O)CCSSC[C@@H](C(N)=O)NC1=O [PAI 96, Mpr-Har-G-D-W-P-A.dagger.-C-NH2] ([Mpa][hArg]GDWP[dA]C-NH2; disulfide 1-8) | 230 | – | –
12 | N=C(N)NCCCC[C@@H]1NC(=O)CCSSC[C@@H](C(N)=O)NC(=O)[C@@H]2CCCN2C(=O)[C@@H]2CCCN2C(=O)[C@H](Cc2c[nH]c3ccccc23)NC(=O)[C@H](CC(=O)O)NC(=O)CNC1=O [PAI 97, Mpr-Har-G-D-W-P-P-C-NH2] ([Mpa][hArg]GDWPPC-NH2; disulfide 1-8) | 1400 | – | –
13 | CN1CC(=O)N[C@H](C(N)=O)CSSCCC(=O)N[C@@H](CCCCNC(=N)N)C(=O)NCC(=O)N[C@@H](CC(=O)O)C(=O)N[C@@H](Cc2c[nH]c3ccccc23)C(=O)N2CCC[C@H]2C1=O [PAI 98, Mpr-Har-G-D-W-P-(Sar)-C-NH2] ([Mpa][hArg]GDWP[Sar]C-NH2; disulfide 1-8) | 310 | – | –
14 | C[C@@H]1NC(=O)CCSSC(C)(C)[C@@H](C(N)=O)NC(=O)[C@@H]2CCCN2C(=O)[C@H](Cc2c[nH]c3ccccc23)NC(=O)[C@H](CC(=O)O)NC(=O)CNC(=O)[C@H](CCCCNC(=N)N)NC1=O [PAI 100, Mpr-A-(Har)-G-D-W-P-Pen-NH2] ([Mpa]A[hArg]GDWP[Pen]-NH2; disulfide 1-8) | 370 | – | –
15 | C[C@@H]1NC(=O)CCSSC(C)(C)[C@@H](C(N)=O)NC(=O)[C@@H]2CCCN2C(=O)[C@H](Cc2c[nH]c3ccccc23)NC(=O)[C@H](CC(=O)O)NC(=O)CNC(=O)[C@H](CCCCN)NC1=O [PAI 101, Mpr-A-K-G-D-W-P-Pen-NH2] ([Mpa]AKGDWP[Pen]-NH2; disulfide 1-8) | 4910 | – | –
16 | CC1(C)SSCCC(=O)N[C@@H](CC(=O)O)C(=O)N[C@@H](CCCCNC(=N)N)C(=O)NCC(=O)N[C@@H](CC(=O)O)C(=O)N[C@@H](Cc2c[nH]c3ccccc23)C(=O)N2CCC[C@H]2C(=O)N[C@@H]1C(N)=O [PAI 102, Mpr-D-(Har)-G-D-W-P-Pen-NH2] ([Mpa]D[hArg]GDWP[Pen]-NH2; disulfide 1-8) | 4040 | – | –

Row | Compound | IC20 [2] [nM] | IC50 [2] [nM] | also measured
17 | Ac-CKGDWPC-NH2 (cysteine pairing not given here) [Analog #47] | – | 2500 | –
18 | Acetyl-C-K-G-D-C-NH2 [Analog #8] | – | 200000 | –
19 | CHGDWPC-NH2 (cysteine pairing not given here) [Analog #46] | – | 200000 | –
20 | CKADWPC-NH2 (cysteine pairing not given here) [Analog #37] | – | 100000 | –
21 | CKGDFPC-NH2 (cysteine pairing not given here) [Analog #13] | – | 20000 | –
22 | CKGDIPC-NH2 (cysteine pairing not given here) [Analog #41] | – | 100000 | –
23 | CKGDWGC-NH2 (cysteine pairing not given here) [Analog #34] | – | 100000 | –
24 | CKGDWPC-NH2 (cysteine pairing not given here) [Analog #10] | – | 5000 | –
25 | CKGDYPC-NH2 (cysteine pairing not given here) [Analog #12] | – | 12000 | –
26 | CKGD[Phe(4-Cl)]P-NH2 [Analog #42] | – | 20000 | –
27 | CKGEWPC-NH2 (cysteine pairing not given here) [Analog #35] | – | > 300000 | –
28 | Mpr-(N-Me-Ser)-Har-G-D-W-P-C-NH2 ([Mpa][NMeS][hArg]GDWPC-NH2; cysteine pairing not given here) [PAI 85] | 280 | – | –
29 | Mpr-Har-G-D-W-P-(Aib)-NH2 ([Mpa][hArg]GDWP[Aib]-NH2; SMILES CC(C)(NC(=O)[C@@H]1CCCN1C(=O)[C@H](Cc1c[nH]c2ccccc12)NC(=O)[C@H](CC(=O)O)NC(=O)CNC(=O)[C@H](CCCCNC(=N)N)NC(=O)CCS)C(N)=O) [PAI 99] | 460 | – | –
30 | Mpr-Har-Sar-D-W-P-C-NH2 [Analog #68] | – | 3000 | –
31 | [Mpa]KGD[2Nal]P[Pen]-NH2 (cysteine pairing not given here) [Analog #57] | – | 1000 | –
